The values that follow come from article PMC6386719, “A glycyl radical enzyme enables hydrogen sulfide production by the human intestinal bacterium Bilophila wadsworthia” (Proceedings of the National Academy of Sciences of the …, 2019).

The Km is the concentration of substrate that gives half-maximal velocity. Usually kcat stands for the maximal rate divided by the concentration of active sites.

The target in data set [1] is T1, SarD (sulfoacetaldehyde reductase) (Bilophila wadsworthia, UniProt E5Y946).
T1 construct: His-tagged, E. coli Rosetta 2 DE3
T1 sequence (E5Y946 whole entry): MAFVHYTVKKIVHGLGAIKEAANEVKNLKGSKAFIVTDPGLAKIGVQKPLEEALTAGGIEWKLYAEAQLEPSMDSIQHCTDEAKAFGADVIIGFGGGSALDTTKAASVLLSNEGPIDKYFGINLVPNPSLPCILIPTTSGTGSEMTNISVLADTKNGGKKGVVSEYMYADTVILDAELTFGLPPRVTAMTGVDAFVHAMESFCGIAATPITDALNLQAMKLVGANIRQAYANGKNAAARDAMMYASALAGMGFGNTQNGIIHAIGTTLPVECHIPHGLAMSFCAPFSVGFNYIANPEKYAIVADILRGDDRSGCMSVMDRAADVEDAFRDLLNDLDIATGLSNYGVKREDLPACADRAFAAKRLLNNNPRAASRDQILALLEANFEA
Briefly: NADH-dependent reduction to isethionate. It is filed as biochemical.

For data set [2], the target named is T2, AdhE (CoA-acylating aldehyde dehydrogenase) (Bilophila wadsworthia, UniProt E5Y379).
T2 construct: His-tagged, E. coli BL21
T2 sequence (E5Y379 1-484): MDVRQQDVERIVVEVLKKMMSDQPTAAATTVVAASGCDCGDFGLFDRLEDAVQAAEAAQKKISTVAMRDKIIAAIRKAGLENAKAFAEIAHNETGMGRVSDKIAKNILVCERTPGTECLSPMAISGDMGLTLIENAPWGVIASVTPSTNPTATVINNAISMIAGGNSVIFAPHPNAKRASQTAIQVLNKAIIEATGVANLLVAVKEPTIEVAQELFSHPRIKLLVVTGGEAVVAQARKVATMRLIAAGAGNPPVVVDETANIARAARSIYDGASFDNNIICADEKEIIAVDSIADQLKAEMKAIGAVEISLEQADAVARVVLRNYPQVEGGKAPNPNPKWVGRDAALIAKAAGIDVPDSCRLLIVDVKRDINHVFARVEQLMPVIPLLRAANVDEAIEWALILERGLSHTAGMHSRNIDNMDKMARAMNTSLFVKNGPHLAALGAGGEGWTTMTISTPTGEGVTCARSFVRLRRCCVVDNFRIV
The experiment in a line: conversion to acetyl-CoA. Particulars: CoASH. It is filed as biochemical.

Data set [3] addresses T3, IslB (GRE-activating enzyme) (Bilophila wadsworthia, UniProt E5Y377).
T3 construct: His-tagged, E. coli BL21(DE3) delta-iscR::kan, anoxic purification, reconstituted, reduced with dithionite
The experiment in a line: glycyl radical installation on IslA, EPR. In kind it is biochemical. Particulars: anoxic, acriflavine as photosensitizer.

Data set [4] addresses T4, Tpa (taurine:pyruvate aminotransferase) (Bilophila wadsworthia, UniProt E5Y945).
T4 construct: His-tagged, E. coli Rosetta 2 DE3
T4 sequence (E5Y945 1-456): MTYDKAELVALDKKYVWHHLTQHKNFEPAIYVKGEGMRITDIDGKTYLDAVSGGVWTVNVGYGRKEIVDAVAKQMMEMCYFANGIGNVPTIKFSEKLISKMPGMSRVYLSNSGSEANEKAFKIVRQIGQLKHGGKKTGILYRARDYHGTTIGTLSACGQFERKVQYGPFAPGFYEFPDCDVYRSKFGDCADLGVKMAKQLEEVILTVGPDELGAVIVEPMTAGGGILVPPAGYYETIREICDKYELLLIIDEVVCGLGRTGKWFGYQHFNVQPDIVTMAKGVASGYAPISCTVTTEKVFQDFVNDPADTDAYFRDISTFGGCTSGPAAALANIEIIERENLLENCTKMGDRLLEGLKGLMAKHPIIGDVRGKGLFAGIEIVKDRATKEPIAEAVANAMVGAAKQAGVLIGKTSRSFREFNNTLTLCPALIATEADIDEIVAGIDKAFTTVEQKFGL
The experiment in a line: deamination to sulfoacetaldehyde; LC-MS. In kind it is biochemical.

The test system of a further data set is O=S(=O)(O)CCO. Briefly: purified protein. Particulars: anoxic; IslB-activated enzyme; NADH in coupling assay.
Substrate in data set [5]: O=S(=O)(O)CCO
The experiment in a line: coupled spectrophotometric assay with yeast alcohol dehydrogenase. In kind it is biochemical, Desulfovibrio desulfuricans. Conditions: anoxic; activated enzyme. An excerpt: coupled spectrophotometric assay with yeast alcohol dehydrogenase on GRE IslA of D. desulfuricans DSM642 | selectivity for the cleavage of isethionate to sulfite and acetaldehyde, but a modest apparent kcat/Km

T3 sequence (E5Y377 whole entry): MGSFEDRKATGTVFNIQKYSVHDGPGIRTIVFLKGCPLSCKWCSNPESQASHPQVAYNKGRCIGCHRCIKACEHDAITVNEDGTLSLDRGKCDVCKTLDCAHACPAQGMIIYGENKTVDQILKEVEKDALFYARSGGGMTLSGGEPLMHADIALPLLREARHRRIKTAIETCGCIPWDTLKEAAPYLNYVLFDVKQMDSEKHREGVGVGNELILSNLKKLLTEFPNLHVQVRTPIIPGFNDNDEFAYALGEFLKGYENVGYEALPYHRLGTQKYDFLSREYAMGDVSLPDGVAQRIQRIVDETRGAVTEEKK
T3 sequence (E5Y378 whole entry, further chain): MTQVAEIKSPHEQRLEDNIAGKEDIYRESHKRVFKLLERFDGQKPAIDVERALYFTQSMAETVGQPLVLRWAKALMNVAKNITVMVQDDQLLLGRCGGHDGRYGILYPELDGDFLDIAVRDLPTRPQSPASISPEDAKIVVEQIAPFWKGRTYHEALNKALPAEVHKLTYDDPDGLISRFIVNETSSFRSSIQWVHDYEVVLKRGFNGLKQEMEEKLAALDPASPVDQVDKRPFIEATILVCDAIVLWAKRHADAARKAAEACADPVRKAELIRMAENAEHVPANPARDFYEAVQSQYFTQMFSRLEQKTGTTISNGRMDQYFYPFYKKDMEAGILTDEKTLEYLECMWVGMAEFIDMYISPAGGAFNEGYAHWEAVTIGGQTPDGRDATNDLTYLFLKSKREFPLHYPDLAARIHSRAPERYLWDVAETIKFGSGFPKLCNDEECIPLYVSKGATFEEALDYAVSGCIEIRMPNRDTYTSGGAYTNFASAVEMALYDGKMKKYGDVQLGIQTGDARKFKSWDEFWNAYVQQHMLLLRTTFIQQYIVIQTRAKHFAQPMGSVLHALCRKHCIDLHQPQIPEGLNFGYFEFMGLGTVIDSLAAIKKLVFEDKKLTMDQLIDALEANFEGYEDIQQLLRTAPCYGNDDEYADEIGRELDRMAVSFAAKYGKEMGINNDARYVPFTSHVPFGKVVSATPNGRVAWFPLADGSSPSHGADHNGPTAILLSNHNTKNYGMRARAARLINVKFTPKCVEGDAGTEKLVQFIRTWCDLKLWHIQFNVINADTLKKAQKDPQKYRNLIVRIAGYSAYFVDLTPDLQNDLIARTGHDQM

With `NC(=O)C1=CN([C@@H]2O[C@H](COP(=O)(O)OP(=O)(O)OC[C@H]3O[C@@H](n4cnc5c(N)ncnc54)[C@H](O)[C@@H]3O)[C@@H](O)[C@H]2O)C=CC1` [NADH], the “NADH-dependent reduction to isethionate” value in data set [1] (sulfoacetaldehyde) is “SarD reduces sulfoacetaldehyde to isethionate in an NADH-dependent manner”. In the case of `NC(=O)c1ccc[n+]([C@@H]2O[C@H](COP(=O)(O)OP(=O)(O)OC[C@H]3O[C@@H](n4cnc5c(N)ncnc54)[C@H](O)[C@@H]3O)[C@@H](O)[C@H]2O)c1` [NAD^+], the “conversion to acetyl-CoA” value in data set [2] (acetaldehyde) is “it preferred NAD^+ over NADP^+”.

With `C[S+](CC[C@H](N)C(=O)O)C[C@H]1O[C@@H](n2cnc3c(N)ncnc32)[C@H](O)[C@@H]1O` (some centres unmarked) [SAM], the “glycyl radical installation on IslA, EPR” value in data set [3] was “incubated with the purified GRE IslA in the presence of SAM and acriflavine”. Consider `CC=O` [acetaldehyde], for which the “conversion to acetyl-CoA” value in data set [2] (NAD+) was “converted acetaldehyde to acetyl-CoA only in the presence of CoASH and NAD^+”.

As to `CC(=O)C(=O)O` [pyruvate], in data set [4] (taurine), the “deamination to sulfoacetaldehyde; LC-MS” value is “Tpa catalyzes the deamination of taurine with pyruvate to generate sulfoacetaldehyde and alanine”. Take `O=CCS(=O)(=O)O` [sulfoacetaldehyde]: in data set [1] (NADH), the “NADH-dependent reduction to isethionate” value was “SarD reduces sulfoacetaldehyde to isethionate in an NADH-dependent manner”. Turning to `NCCS(=O)(=O)O` [taurine, 2-aminoethanesulfonate], in data set [4] (pyruvate), the “deamination to sulfoacetaldehyde; LC-MS” value is “Tpa catalyzes the deamination of taurine with pyruvate to generate sulfoacetaldehyde and alanine”.

Consider “IslA (isethionate sulfite-lyase) (Bilophila wadsworthia 3_1_6)”, for which, in the data set with O=S(=O)(O)CCO, the Km is 8.1 ± 0.8 mM and the kcat amounted to 14 ± 0.4 s⁻¹.

B1: GRE IslA of D. desulfuricans DSM642 (Desulfovibrio desulfuricans ATCC 27774) (protein)
chain: MSMTTCECRSPQEQRLYDKIEGREDRFRKTHPRVFRLLERFEGQKPRIDIERALYFTQSMQETEGQPLVLRWAKALMHIARNMTVYVQEDQLLLGRAGCDGRYGILYPELDGDFLDIAVRDLPTRKTSPATITPEDARRVVEEIAPYWKGKTYHEALNAALPAEVHKLTYDDPEGLISRFIVNETSSFRSSIQWVHDYEKILKRGFNSIKKEAREKLAALDPLSAKDDREKRPFLEAVMIVCDAIVLWAKRHAVLAREMAEKESDPVRKAELLRMAENAEHVPGEPARDFWEACQSQWFTQMFSRIEQKTGTTISNGRMDQYFQPYYKQDREAGKITEAQAMELLECMWVGMAEFIDMYISPTGGAFNEGYAHWEAVTVGGQTPDGRDASNDLTYLILKSKREFPLHYPDLAARIHSRAPERYLWDVAETIKYGSGFPKLINDEEIVPLYVSKGATFEEALDYAVSGCTEARMPNRDTYTSGGAYINFAAAVEMVLRNGRMKKYGDQKLGVETGDPRSFTTWDQFWNAYVEQHLLFLKTAFTQQYIINKLRAEHFAQPMGSAMHDLCMKHCIDLHQEQIPEGINLGYFEYMGLGTVVDSLAAVKKLVFEEKKLSMDKLIAAIDADFEGYEDVRALLRSAPCYGNNDEYADAIGRDIDRISVEYGNKYSMSDLGIHNDVRYVPFTSHVPFGKVVSATPNGRTDGFPLSDGSSASHGADVNGPTAVLLSNCTTKNMGLRDRAARMLNIKFTPKCVEGEQGTEKLVSFIRTFCDLKLWHVQFNVVNKGTLVAAQKDPQKYRNLIVRIAGYSAYFVDLSPDLQNDLIARTEHDVM
notes: His-tagged, E. coli BL21
As for B1, in data set [5], the Km came out at 6.3 ± 0.5 mM and the turnover number (kcat) turned out to be 12 ± 0.2 s⁻¹.
